Experimental data taken from PMC11678782, “The Antioxidant and Anti-Inflammatory Activities of the Methanolic Extract, Fractions, and Isolated Compounds from Eriosema montanum Baker f. (Fabaceae)” (Molecules, 2024).
Entries after “also recorded” stand apart in the source; their conditions may differ. Values belong to the compound of their own block, whether it stands above or below them.

Tests used:
soybeans 15-LOX = target: T1, soybeans 15-LOX (Glycine max, UniProt P08170); assay: 15-lipoxygenase enzyme inhibitory assay (FOX); format: biochemical, soybean; details: linoleic acid substrate, FOX reagent, 560 nm; read-out: IC50 15-LOX (converted)
T1 construct: purchased Merck, Darmstadt, Germany
T1 sequence (P08170 1-839): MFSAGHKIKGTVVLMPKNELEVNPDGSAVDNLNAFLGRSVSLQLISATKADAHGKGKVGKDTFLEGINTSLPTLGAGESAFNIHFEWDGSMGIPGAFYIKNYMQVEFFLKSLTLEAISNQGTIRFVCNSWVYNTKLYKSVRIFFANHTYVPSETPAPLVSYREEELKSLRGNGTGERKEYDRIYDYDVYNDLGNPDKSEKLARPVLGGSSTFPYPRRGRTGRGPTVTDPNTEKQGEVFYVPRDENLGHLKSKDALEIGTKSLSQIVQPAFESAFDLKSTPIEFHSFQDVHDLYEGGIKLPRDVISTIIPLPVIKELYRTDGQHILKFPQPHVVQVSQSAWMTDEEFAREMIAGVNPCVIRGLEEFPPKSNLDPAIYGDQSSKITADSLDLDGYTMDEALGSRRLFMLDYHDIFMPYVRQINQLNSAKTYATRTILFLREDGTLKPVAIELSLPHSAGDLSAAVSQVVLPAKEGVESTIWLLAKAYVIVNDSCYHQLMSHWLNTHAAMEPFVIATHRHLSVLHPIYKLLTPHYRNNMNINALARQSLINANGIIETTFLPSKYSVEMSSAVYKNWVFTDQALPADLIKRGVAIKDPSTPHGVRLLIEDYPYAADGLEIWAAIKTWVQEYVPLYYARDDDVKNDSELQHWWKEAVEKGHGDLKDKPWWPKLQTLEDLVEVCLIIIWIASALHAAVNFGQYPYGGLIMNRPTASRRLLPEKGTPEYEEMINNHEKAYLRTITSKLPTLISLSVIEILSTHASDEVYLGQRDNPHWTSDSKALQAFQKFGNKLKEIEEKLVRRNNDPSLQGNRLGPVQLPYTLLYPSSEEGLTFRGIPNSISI
Method: The method developed by Pinto et al. was used to determine the effect of the tested samples on 15-LOX inhibitory activity, with slight modifications to the 96-well microtitre plate format. Using 20 µL of tested samples at varying concentrations (3.90 to 500 µg/mL), the soybeans 15-LOX (Merck, Darmstadt, Germany) (40 µL, 200 UI/mL) were incubated at 25 °C for 5 min. The plate was then incubated at 25 °C for 20 min in the dark; after, 40 µL of linoleic acid (final concentration, 140 μM) produced in Tris-HCl buffer (50 mM, pH 7.4) was added. A total of 100 µL of the FOX reagent—sulfuric acid (30 mM), xylenol orange (100 μM), and ferrous II) sulfate (100 μM) mixed in methanol/water (9:1)—was added to terminate the test. A SpectraMax iD3 multi-mode microplate reader (Molecular Devices, San Jose, CA, USA) was used to measure the absorbance at 560 nm following 30 min of incubation at 25 °C in the dark. Gallic acid (0.78 to 100 µg/mL) was employed as the usual inhibitor of 15-LOX, while DMSO at 5% (v/v) served as the negative control. With the exception of adding the substrate after the FOX reagent, the blanks were prepared exactly like the tested samples. Formula (2) below was used to compute the 15-LOX inhibitory activity. 15 LOX inhibitory activity (%) = 100 − [(A0 − A1) − (A2 − A1)] × 100(2) where A0 is absorbance of test samples, A1 is absorbance of blank, and A2 is absorbance of negative control (DMSO 5%).
The IC50 values were calculated for each biological experiment using the nonlinear regression curve of the % inhibitory activity versus the logarithm (log10) of the various tested concentrations using GraphPad Prism 6.0 software (GraphPad Software, Inc., San Diego, CA, USA). The data are shown as mean ⁱ SEM (standard error of the mean) values, and all biological experiments were conducted in triplicate (n = 3). The statistical analysis was conducted using GraphPad Prism 6.0 software (GraphPad Software, Inc., San Diego, CA, USA). One-way analysis of variance (ANOVA) was used to compare the data across the tested samples and/or controls, and Student–Newman–Keuls or Dunnett’s tests were then performed. A p-value of less than 0.05 indicated a significant difference in the results.

[1] = tested on: LPS-stimulated RAW 264.7 cells; assay: ROS production in LPS-stimulated RAW 264.7 cells (DCFH-DA); format: cell-based, murine; details: 25, 50, 100 µg/mL, 2 h pre-treatment, 200 ng/mL LPS 24 h
Method: For ROS production inhibition, on a black/clear bottom 96-well plate, RAW 264.7 cells were seeded at a density of 10,000 cells per well. The cells were then pre-treated with non-toxic quantities of EMME and genistin (5) at 25, 50, and 100 µg/mL for two hours and then exposed to 200 ng/mL of LPS for twenty-four hours under standard culture conditions. Thereafter, the cells were washed twice with PBS, followed by the addition of 100 µL of fresh FBS-free medium containing 10 µM of the fluorescent probe 2′,7′-dichlorodihydrofluorescein diacetate (DCFH-DA) (Sigma-Aldrich, Darmstadt, Germany). After 30 min of additional incubation under usual culture conditions, PBS was added to the plate in place of the fluorescent probe. The fluorescence of the cells was measured using a SpectraMax iD3 multi-mode microplate reader (Molecular Devices, San Jose, CA, USA) at 485 nm (excitation) and 535 nm (emission). The percentage of cells treated with DMSO 0.5% without LPS, known as the negative control, was used to express the intracellular ROS levels. Using an excitation/emission filter (480/535 nm) on a 40× objective, images were taken with a camera (Flexacam C1, Leica Microsystems, Wetzlar, Germany) attached to a fluorescence microscope (Leica Microsytems GmbH, Wetzlar, Germany).

[2] = design: method as in PMID 12510840, PMID 22997529; details: ONOO−, DPPH•, ABTS•+; cited from earlier work
[3] = tested on: LPS-induced NO production; design: method as in PMID 20183278, PMID 27087823, PMID 32253713; details: cited from earlier work

SMILES: CCCCCCCCCCCCCCCC [Compound 1, n-hexadecane]
- IC50 (soybeans 15-LOX): > 883 µM

SMILES: CCCCCCCCCCCCCCCCCCCCCCCO [Compound 3, tricosan-1-ol]
- IC50 (soybeans 15-LOX): > 587 µM

SMILES: CC[C@H](/C=C/[C@@H](C)[C@H]1CC[C@H]2[C@@H]3CC=C4C[C@@H](O[C@@H]5O[C@H](CO)[C@@H](O)[C@H](O)[C@H]5O)CC[C@]4(C)[C@H]3CC[C@]12C)C(C)C [Compound 7, stigmasterol glucoside]
- IC50 (soybeans 15-LOX): > 348 µM

More lines, main results first:

- IC50 (soybeans 15-LOX): > 704 µM
SMILES: O=c1c2c(O)cc(O)cc2oc2oc3cc(O)ccc3c12 [Compound 4, lupinalbin A]

- IC50 (soybeans 15-LOX): 414 µM
SMILES: O=c1c(-c2ccc(O)cc2)coc2cc(O[C@@H]3O[C@H](CO)[C@@H](O)[C@H](O)[C@H]3O)cc(O)c12 [Compound 5, genistin]
- Inhibition of LPS-induced ROS production [1]: markedly and dose-dependently reduced
- Inhibition of LPS-induced ROS production ([1]; listed as Genistin (5)): able to inhibit
- Inhibition of LPS-induced ROS production ([1]; listed as genistin (5)): moderate activity; also recorded: moderately effective
- Antioxidant properties via scavenging activity [2]: moderate antioxidant properties
- Effect on LPS-induced NO production [3]: decreases LPS-induced NO production

- IC50 (soybeans 15-LOX): > 1030 µM
SMILES: CO[C@H]1[C@H](O)[C@@H](O)[C@@H](O)[C@H](O)[C@@H]1O [Compound 6, D-pinitol]
